Laboratory results from US20020122768A1, “Stable radiopharmaceutical compositions and methods for preparation thereof” (priority 2000, published 2002).

Assay: Solution stability of ^177Lu-C at −78° C., RCP by radio-HPLC
Assay type: physicochemical
Details: for RCP (%) t = 0 / RCP (%) t = 3 days / RCP (%) t = 7 days / RCP (%) change: ^177Lu-C prepared using 2 mg GA; for RCP (%) t = 0 / RCP (%) t = 3 days / RCP (%) t = 7 days: degassed, second stabilizer (20 mg AA, 20 mg DSA, 10 mg 2,3,4-THBA, 10 mg 3,4,5-THBA) added post-labeling; for RCP (%) change: second stabilizer added post-labeling, t = 0 to 7 days; for stabilization compared with AA and DSA: ^177Lu-C, second stabilizer
Description: The integrity of a radiopharmaceutical is measured by the radiochemical purity (RCP) of the radiolabeled compound using ITLC or more preferably HPLC. The advantage of using HPLC is that radio-impurities caused by radiolytic degradation can be separated from the radiopharmaceutical under optimized chromatographic conditions. […] The radiopharmaceutical compositions of this invention are effective in maintaining the long-term stability of samples that have been frozen, thawed, and re-tested periodically for 7 days.
The initial RCP of a radiopharmaceutical is largely dependent on radiolabeling conditions such as pH, heating temperature and time. Once a radiopharmaceutical is prepared in high yield, the stability of the radiopharmaceutical composition is measured by the` RCP change of the radiopharmaceutical over a certain period of time. For comparison purposes, sodium gentisate or sodium ascorbate was often used as the reference since they have been used in various radiopharmaceutical formulations.
HPLC method 3 used a HP-1100 HPLC system with a UV/visible detector (λ=220 nm), an IN-US radio-detector, and a Zorbax C18 column (4.6 mm×250 mm, 80 Å pore size). The flow rate was 1 mL/min with a gradient mobile phase starting from 90% solvent A (0.025 M ammonium acetate buffer, pH 6.8) and 10% solvent B (acetonitrile) at 0 min to 88% solvent A and 12% solvent B at 18 min, followed by an isocratic wash using 40% of solvent A and 60% solvent B from 19 to 25 min.
The ITLC method used Gelman Sciences silica-gel ITLC paper strips and 1:1 mixture of acetone and saline as eluant. By this method, the radiolabeled compounds migrate to the solvent front while [^90Y]/^177Lu]colloid and [^90Y]/^177Lu]acetate remain at the origin.
(§1) The 0.5 M ammonium acetate buffer (pH 8.0) was first degassed under vacuum for 1-2 min. COMPOUND C and gentisic acid (sodium salt, GA) were dissolved in the degassed buffer to give a concentration of 100 μg/mL for COMPOUND C and 2 mg/mL for GA. The resulting solution was immediately degassed under vacuum for another 1-2 min. To a clean sealed 5 mL vial was added 1.0 mL of the degassed 0.5 M ammonium acetate buffer (pH 8.0) containing 100 μg COMPOUND C and 2 mg GA. The solution was degassed again under vacuum. Upon addition of ˜20 μL of ^177LuCl3 solution (˜20 mCi) in 0.05 N HCl, the reaction mixture was heated at 100° C. for 5 min. After cooling to room temperature, a sample of the resulting solution was analyzed by HPLC (Method 3, injection volume=5 μL) and ITLC. […] To the solution above was added 0.5 mL of sodium ascorbate solution (40 mg/mL in 0.5 M ammonium acetate buffer, pH=7.4). The resulting mixture was then kept in a dry-ice box (−78° C.) for 7 days. Samples were analyzed at t=0, 3 and 7 days.
as §1, with “COMPOUND” for “The 0.5 M ammonium acetate buffer (pH 8.0) was first degassed under vacuum for 1-2 min. COMPOUND”, “1.0 μL” for “1.0 mL”, “of 2,3,4-THBA” for “of sodium ascorbate”, “solution (20” for “solution (40”
COMPOUND C and gentisic acid (sodium salt, GA) were dissolved in the degassed buffer to give a concentration of 100 μg/mL for COMPOUND C and 2 mg/mL for GA. The resulting solution was immediately degassed under vacuum for another 1-2 min. […]

Row | Molecule | RCP (%) t = 0 [%] | RCP (%) t = 3 days [%] | RCP (%) t = 7 days [%] | RCP (%) change [%] | stabilization compared with AA and DSA
1 | 2,4-disulfonatobenzeneamine [DSA] | 97.4 | 95.9 | 93.0 | 4.4 | –
2 | O=C(O)c1ccc(O)c(O)c1O [2,3,4-THBA, 2,3,4-trihydroxybenzoic acid] | 97.4 | 96.5 | 95.4 | 2.0 | better stabilization
3 | O=C(O)c1cc(O)c(O)c(O)c1 [3,4,5-THBA, 3,4,5-trihydroxybenzoic acid] | 97.2 | 96.7 | 95.0 | 2.2 | better stabilization
